In US20230113011A1, “METHODS OF TREATING ILLNESSES CAUSED BY CORONAVIRUS, SWINE FLU AND AVIAN FLU” (CMTx Biotech Inc., priority 2020, published 2023):

Conditions: in vivo

NC(=O)C1=C(O)C[C@@H]2C[C@@H]3Cc4cccc(O)c4C(=O)C3=C(O)[C@]2(O)C1=O [CMT-3, 6-demethyl-6-deoxy-4-dedimethylaminotetracycline]
plasma concentrations in humans: about 1.0 μg/ml
